According to patent publication US20250296916A1, “BICYCLIC PIPERAZINONES AND THERAPEUTIC USES THEREOF” (Cytokinetics, Inc., priority 2022, published 2025):

How the values were obtained:
[1] = test system: ankle plantarflexor muscle contractile force; assay: Rat isometric ankle plantarflexor muscle force; type: in vivo, Sprague Dawley rats; details: estimated concentration at which muscle force is 50% of pre-dose maximum tension, 30 Hz stimulation, continuous intravenous infusion over sixty minutes, female rats
Text: Female Sprague Dawley rats were placed under a stable anesthesic plane with inhaled isoflurane (1-5%). One incision was made on the mid-thigh region of the right leg to expose the sciatic nerve. To prevent co-contraction of the ankle dorsiflexors, an additional incision was made lateral to the patella to isolate and sever the peroneal nerve. Rats were then placed on a temperature-maintained in situ muscle analysis rig (Aurora Scientific, Model 806C). The knee was immobilized in a clamp between two sharpened screws and the foot was taped to a footplate attached to a force transducer (Aurora Scientific, Ontario, Canada). Stainless steel needle electrodes (0.10 mm) were hooked around the exposed sciatic nerve. Isometric ankle plantarflexor muscle contractile force was assessed with the ankle joint at 90° flexion. A 30 Hz electrical stimulation (under supramaximal voltage conditions) was applied to the nerve and the resulting muscle force was recorded via a servomotor. A pre-dose 30 Hz force response was established as the baseline force. A pre-dose 150 Hz force response was established as the maximum isometric force. Compounds were formulated in 50% polyethylene glycol (PEG): 16% Cavitron: 10% dimethylacetamide (DMA) and administered by continuous intravenous infusion over a sixty minute period. The muscle force response to compound was measured every two minutes over the dosing period. Data were reported as an estimated EC50 value, which is the concentration at which muscle force is 50% of the pre-dose maximum tension. In Table 4, “Example Compound” refers to the compound labeled with the same number in Table 2.

[2] = test system: rabbit skeletal myofibrils (approximately 90% fast fibers); assay: Activation of fast skeletal myofibrils (PUMA coupled-enzyme ATPase assay); type: biochemical; details: concentration at which the compound increased the enzymatic activity by 40%; calcium at pCa25; PM12 buffer pH 6.8
Outline: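 Rabbit psoas myofibrils (Triton-washed, ~90% fast fibers) at calcium giving 25% of maximal ATPase rate (pCa25). ADP regenerated via pyruvate kinase/lactate dehydrogenase coupling, NADH oxidation read as absorbance at 340 nm. Buffer 12 mM PIPES, 2 mM MgCl2, 1 mM DTT, pH 6.8.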

In the case of `CCC[C@H]1C(=O)Nc2ccccc2N1C(=O)c1cnn(C)c1` [Compound 13, (S)-4-(1-methyl-1H-pyrazole-4-carbonyl)-3-propyl-3,4-dihydroquinoxalin-2(1H)-one], the EC50 [1] is reported as 15.7 µM and the AC1.4 [2] is reported as 0.13 µM.

With `CC(C)[C@H]1C(=O)Nc2cnccc2N1C(=O)c1cnn(C)c1` [Compound 88, (S)-2-isopropyl-1-(1-methyl-1H-pyrazole-4-carbonyl)-1,4-dihydropyrido[3,4-b]pyrazin-3(2H)-one] the EC50 [1] was 20.1 µM and the AC1.4 [2] was 0.85 µM.

With `CC[C@H](C)[C@H]1C(=O)Nc2cnccc2N1C(=O)c1cnn(C)c1` [Compound 89, (S)-2-((S)-sec-butyl)-1-(1-methyl-1H-pyrazole-4-carbonyl)-1,4-dihydropyrido[3,4-b]pyrazin-3(2H)-one] the EC50 [1] was 23.9 µM and the AC1.4 [2] was 0.23 µM.

For `CC(C)[C@H]1C(=O)Nc2cccnc2N1C(=O)c1ccc(=O)n(C)c1` [Compound 87, (S)-3-isopropyl-4-(1-methyl-6-oxo-1,6-dihydropyridine-3-carbonyl)-3,4-dihydropyrido[2,3-b]pyrazin-2(1H)-one], the AC1.4 [2] was 2.15 µM.

`CCC[C@H]1C(=O)Nc2ccccc2N1C(=O)c1ccc(F)nc1` [Compound 6, (S)-4-(6-fluoronicotinoyl)-3-propyl-3,4-dihydroquinoxalin-2(1H)-one] gave an AC1.4 [2] of 2.19 µM.

`CC(C)[C@H]1C(=O)Nc2ccccc2N1C(=O)c1cnc2[nH]ncc2c1` [Compound 83, (S)-3-isopropyl-4-(1H-pyrazolo[3,4-b]pyridine-5-carbonyl)-3,4-dihydroquinoxalin-2(1H)-one] gave an AC1.4 [2] of 0.06 µM.

In the case of `CCC[C@H]1C(=O)Nc2ccccc2N1C(=O)c1ccc(OC(F)F)nc1` [Compound 24, (S)-4-(6-(difluoromethoxy)nicotinoyl)-3-propyl-3,4-dihydroquinoxalin-2(1H)-one], the AC1.4 [2] is reported as 0.4 µM.

Work on `CCC[C@H]1C(=O)Nc2ccccc2N1C(=O)c1cnc2[nH]ccc2c1` [Compound 26, (S)-3-propyl-4-(1H-pyrrolo[2,3-b]pyridine-5-carbonyl)-3,4-dihydroquinoxalin-2(1H)-one] yielded an AC1.4 [2] of 0.56 µM.

`CC[C@H](C)[C@H]1C(=O)Nc2ccccc2N1C(=O)N1CCC[C@H](O)C1` [Compound 114, (S)-3-((S)-sec-butyl)-4-((S)-3-hydroxypiperidine-1-carbonyl)-3,4-dihydroquinoxalin-2(1H)-one] showed an AC1.4 [2] of 1.69 µM.

`CCC[C@H]1C(=O)Nc2ccccc2N1C(=O)Nc1cccc(C)c1` [Compound 61, (S)-3-oxo-2-propyl-N-(m-tolyl)-3,4-dihydroquinoxaline-1(2H)-carboxamide] gave an AC1.4 [2] of 0.43 µM.

In the case of `CCC[C@H]1C(=O)Nc2ccccc2N1C(=O)c1ccc(NCC(F)(F)F)nc1` [Compound 34, (S)-3-propyl-4-(6-((2,2,2-trifluoroethyl)amino)nicotinoyl)-3,4-dihydroquinoxalin-2(1H)-one], the AC1.4 [2] is reported as 2.59 µM.

For `CC(C)[C@H]1C(=O)Nc2ccccc2N1C(=O)c1ccc(=O)[nH]c1` [Compound 85, (S)-3-isopropyl-4-(6-oxo-1,6-dihydropyridine-3-carbonyl)-3,4-dihydroquinoxalin-2(1H)-one], the AC1.4 [2] was 0.15 µM.

`CCC[C@H]1C(=O)Nc2ccccc2N1C(=O)c1ccc(-n2cccc2)nc1` [Compound 23, (S)-4-(6-(1H-pyrrol-1-yl)nicotinoyl)-3-propyl-3,4-dihydroquinoxalin-2(1H)-one] was tested, and the AC1.4 [2] was 1.33 µM.

`CCC[C@H]1C(=O)Nc2ccccc2N1C(=O)c1ccc(N2CC(OC)C2)nc1` [Compound 40, (S)-4-(6-(3-methoxyazetidin-1-yl)nicotinoyl)-3-propyl-3,4-dihydroquinoxalin-2(1H)-one] gave an AC1.4 [2] of 2.37 µM.

For `CC[C@H](C)[C@H]1C(=O)Nc2ccccc2N1C(=O)c1cnn(CCO)c1` [Compound 78, (S)-3-((S)-sec-butyl)-4-(1-(2-hydroxyethyl)-1H-pyrazole-4-carbonyl)-3,4-dihydroquinoxalin-2(1H)-one], the AC1.4 [2] was 0.16 µM.

`CCC[C@H]1C(=O)Nc2ccccc2N1C(=O)c1cncc(F)c1` [Compound 18, (S)-4-(5-fluoronicotinoyl)-3-propyl-3,4-dihydroquinoxalin-2(1H)-one] gave an AC1.4 [2] of 2.97 µM.

`CC[C@H](C)[C@H]1C(=O)Nc2ccccc2N1C(=O)OC` [Compound 125, methyl (S)-2-((S)-sec-butyl)-3-oxo-3,4-dihydroquinoxaline-1(2H)-carboxylate] gave an AC1.4 [2] of 1.25 µM.

`CC[C@H](C)[C@H]1C(=O)Nc2ccccc2N1C(=O)CO` [Compound 109, (S)-3-((S)-sec-butyl)-4-(2-hydroxyacetyl)-3,4-dihydroquinoxalin-2(1H)-one] showed an AC1.4 [2] of 1.51 µM.

`CC[C@H](C)[C@H]1C(=O)Nc2ccccc2N1C(=O)N[C@H]1C[C@H](O)C1` [Compound 132, (S)-2-((S)-sec-butyl)-N-((1R,3S)-3-hydroxycyclobutyl)-3-oxo-3,4-dihydroquinoxaline-1(2H)-carboxamide] gave an AC1.4 [2] of 0.64 µM.
